In ChEMBL document CHEMBL1201862, “PubChem BioAssay data set” (2004):
Calls of active or inactive are those of the source. How the calls were made is not given here.

Molecular target: ALK tyrosine kinase receptor (Homo sapiens, UniProt Q9UM73)
Assay type: functional
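Further: ALK tested as one member of a kinase panel screen.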

Chain of ALK tyrosine kinase receptor (Q9UM73 whole entry): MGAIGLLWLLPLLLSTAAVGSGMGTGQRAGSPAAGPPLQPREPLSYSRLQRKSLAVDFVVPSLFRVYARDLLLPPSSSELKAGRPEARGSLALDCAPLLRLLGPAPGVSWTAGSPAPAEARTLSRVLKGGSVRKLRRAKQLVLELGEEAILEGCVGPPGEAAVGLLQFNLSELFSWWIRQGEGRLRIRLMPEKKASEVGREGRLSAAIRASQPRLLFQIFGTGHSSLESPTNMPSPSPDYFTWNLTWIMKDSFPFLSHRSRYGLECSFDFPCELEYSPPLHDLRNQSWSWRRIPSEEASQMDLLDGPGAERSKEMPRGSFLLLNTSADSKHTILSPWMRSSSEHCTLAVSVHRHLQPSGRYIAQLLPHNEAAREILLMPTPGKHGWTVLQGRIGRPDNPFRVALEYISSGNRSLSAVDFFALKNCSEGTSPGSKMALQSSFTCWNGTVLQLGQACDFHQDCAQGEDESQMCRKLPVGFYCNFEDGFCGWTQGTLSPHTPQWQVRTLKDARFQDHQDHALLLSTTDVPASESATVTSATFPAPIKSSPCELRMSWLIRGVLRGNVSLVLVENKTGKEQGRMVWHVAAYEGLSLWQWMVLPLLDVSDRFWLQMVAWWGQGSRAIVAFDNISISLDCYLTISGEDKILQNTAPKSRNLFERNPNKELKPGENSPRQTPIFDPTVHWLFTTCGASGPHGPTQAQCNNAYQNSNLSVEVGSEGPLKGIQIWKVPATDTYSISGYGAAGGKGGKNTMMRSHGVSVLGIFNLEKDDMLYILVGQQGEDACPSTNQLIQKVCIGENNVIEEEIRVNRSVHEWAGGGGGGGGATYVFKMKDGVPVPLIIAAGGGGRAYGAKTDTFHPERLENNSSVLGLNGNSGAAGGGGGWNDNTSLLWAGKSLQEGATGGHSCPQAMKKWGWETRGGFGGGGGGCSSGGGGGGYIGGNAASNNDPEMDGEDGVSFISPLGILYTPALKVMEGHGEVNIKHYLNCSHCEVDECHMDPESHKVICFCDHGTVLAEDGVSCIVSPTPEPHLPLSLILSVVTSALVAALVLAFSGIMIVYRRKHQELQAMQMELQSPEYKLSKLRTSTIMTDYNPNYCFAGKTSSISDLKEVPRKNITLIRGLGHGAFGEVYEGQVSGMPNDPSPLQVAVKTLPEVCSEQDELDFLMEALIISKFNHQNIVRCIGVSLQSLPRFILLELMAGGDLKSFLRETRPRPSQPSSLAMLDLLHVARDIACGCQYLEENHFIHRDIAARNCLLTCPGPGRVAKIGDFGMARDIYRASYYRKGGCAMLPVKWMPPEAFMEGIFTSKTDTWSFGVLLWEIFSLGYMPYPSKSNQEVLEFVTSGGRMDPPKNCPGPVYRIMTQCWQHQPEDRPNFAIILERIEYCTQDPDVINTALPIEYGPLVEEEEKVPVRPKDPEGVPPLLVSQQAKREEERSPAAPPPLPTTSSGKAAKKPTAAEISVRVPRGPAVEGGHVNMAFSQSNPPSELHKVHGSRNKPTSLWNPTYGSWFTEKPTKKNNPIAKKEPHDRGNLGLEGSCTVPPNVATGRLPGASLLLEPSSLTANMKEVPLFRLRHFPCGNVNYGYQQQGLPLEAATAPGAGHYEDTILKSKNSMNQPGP

- Ki: 6.31 µM (active)
SMILES: Nc1noc2cccc(-c3cccc(O)c3)c12
